Reference: patent publication US20220289794A1, “SYNTHETIC ANTIMICROBIAL PEPTIDES” (priority 2019, published 2022)
Converted amounts (≈) assume the structure as drawn. Non-standard residues stand in square brackets, D forms with d. Residues, ends and D or L forms follow the SMILES beside them. Dip = N[C@H](C(=O)O)C(c1ccccc1)c1ccccc1; 2Nal = N[C@@H](Cc1ccc2ccccc2c1)C(=O)O

Experiments:
[1] = system: Escherichia coli (E. Coli, ATCC 25922); settings: Escherichia coli (ATCC 25922); antibiotic alone
[2] = system: Streptococcus pneumoniae ATCC 51938; settings: S. pneumoniae ATCC 51938
[3] = system: P. aeruginosa (ATCC BAA-1744); test: Broad-spectrum activity against Gram-Negative bacteria (MIC); format: cell-based; settings: Table 16, Gram-negative panel
[4] = system: Enterococcus faecalis ATCC 29212; settings: E. faecalis ATCC 29212
[5] = system: Pseudomonas aeruginosa (ATCC 27883); settings: ATCC 27883
[6] = system: Enterococcus faecium ATCC 27270; settings: E. faecium ATCC 27270
[7] = system: Enterococcus faecalis ATCC 51575; settings: E. faecalis ATCC 51575
[8] = system: P. aeruginosa (ATCC 10145); test: Broad-spectrum activity against Gram-Negative bacteria (MIC); format: cell-based; settings: Table 16, Gram-negative panel
B. cereus (ATCC-13061) = test: Broad-spectrum activity against Gram-Positive bacteria (MIC); format: cell-based; set-up: unit not given here
[9] = system: Klebsiella pneumoniae ATCC 13883; settings: Table 16, Gram-negative panel
[10] = system: Escherichia coli (ATCC 25922); settings: ATCC 25922
B. subtilis (ATCC-6633) = test: Broad-spectrum activity against Gram-Positive bacteria (MIC); format: cell-based; set-up: unit not given here
[11] = system: Enterococcus faecium ATCC 700221; settings: E. faecium ATCC 700221
E. coli (ATCC BAA-2452) = test: Broad-spectrum activity against Gram-Negative bacteria (MIC); format: cell-based; settings: Table 16, Gram-negative panel
[12] = system: Methicillin-resistant Staphylococcus aureus MRSA (ATCC BAA-1556); settings: ATCC BAA-1556
S. aureus ATCC 29213 = settings: ATCC 29213
[13] = system: Klebsiella pneumoniae (ATCC BAA-1705); settings: Table 16, Gram-negative panel
[14] = system: A. baumannii (ATCC BAA-1605); test: Broad-spectrum activity against Gram-Negative bacteria (MIC); format: cell-based; settings: Table 16, Gram-negative panel
[15] = system: Streptococcus pneumoniae ATCC 49619; settings: S. pneumoniae ATCC 49619
human red blood cells = system: human red blood cells; set-up: unit not given beside the values

Structure (SMILES) | Broad-spectrum activity S. pneumoniae (ATCC 51938) [2] | MIC P. aeruginosa (ATCC BAA-1744) [3] [µg/mL] | Broad-spectrum activity E. faecalis (ATCC 29212) [4] | MIC P. aeruginosa ATCC 27883 [5] [µg/mL] | Broad-spectrum activity E. faecium (ATCC 27270) [6] | Broad-spectrum activity E. faecalis (ATCC 51575) [7] | MIC P. aeruginosa (ATCC 10145) [8] [µg/mL] | Broad-spectrum activity B. cereus (ATCC-13061) (B. cereus (ATCC-13061)) | MIC K. pneumonia (ATCC 13883) [9] [µg/mL] | MIC E. coli ATCC 25922 [10] [µg/mL] | Broad-spectrum activity B. subtilis (ATCC-6633) (B. subtilis (ATCC-6633)) | Broad-spectrum activity E. faecium (ATCC 700221) [11] | MIC E. coli (ATCC BAA-2452) (E. coli (ATCC BAA-2452)) [µg/mL] | MIC MRSA ATCC BAA-1556 [12] [µg/mL] | MIC S. aureus ATCC 29213 (S. aureus ATCC 29213) [µg/mL] | MIC K. pneumonia (ATCC BAA-1705) [13] [µg/mL] | MIC A. baumannii (ATCC BAA-1605) [14] [µg/mL] | Broad-spectrum activity S. pneumoniae (ATCC 49619) [15] | HC50 (human red blood cells) | other results
N=C(N)NCCC[C@@H]1NC(=O)[C@H](CCCNC(=N)N)NC(=O)[C@H](CCCNC(=N)N)NC(=O)[C@H](Cc2c[nH]c3ccccc23)NC(=O)[C@H](Cc2c[nH]c3ccccc23)NC(=O)[C@H](Cc2c[nH]c3ccccc23)NC(=O)[C@H](Cc2c[nH]c3ccccc23)NC(=O)[C@H](CCCNC(=N)N)NC(=O)[C@H](CCCNC(=N)N)NC1=O [[R5W4] IFX-301] | – | – | – | – | – | – | – | – | – | – | – | – | – | – | – | – | – | – | – | MIC (KPC): 32 µg/mL (≈ 21 µM); MIC (E. coli): 16 µg/mL (≈ 10.5 µM); MIC (PSA): 32 µg/mL (≈ 21 µM)
O=C(O)c1cn(C2CC2)c2cc(N3CCNCC3)c(F)cc2c1=O [Ciprofloxacin, reference compound] | – | – | – | – | – | – | – | – | – | – | – | – | – | – | – | – | – | – | – | MIC of antibiotic [1]: 64 µg/mL
N=C(N)NCCC[C@@H]1NC(=O)[C@H](CCCNC(=N)N)NC(=O)[C@H](C(c2ccccc2)c2ccccc2)NC(=O)[C@H](C(c2ccccc2)c2ccccc2)NC(=O)[C@H](C(c2ccccc2)c2ccccc2)NC(=O)[C@H](CCCNC(=N)N)NC1=O [IFX-002, c[Arg-Arg-Arg-Dip-Dip-Dip]] (cyclo([Dip][Dip][Dip]RRR)) | 25 | 25 (≈ 22 µM) | 12.5 | 12.5 (≈ 11 µM) | 6.2 | 12.5 | 50 (≈ 43.9 µM) | 12.5 | 50 (≈ 43.9 µM) | 12.5 (≈ 11 µM) | 6.2 | 6.2 | 25 (≈ 22 µM) | 3.1 (≈ 2.72 µM) | 3.1 (≈ 2.72 µM) | 12.5 (≈ 11 µM) | 25 (≈ 22 µM) | 50 | 205 | –
N=C(N)NCCC[C@@H]1NC(=O)[C@H](CCCNC(=N)N)NC(=O)[C@H](Cc2ccc3ccccc3c2)NC(=O)[C@H](Cc2ccc3ccccc3c2)NC(=O)[C@H](CCCNC(=N)N)NC(=O)[C@H](CCCNC(=N)N)NC(=O)[C@H](Cc2ccc3ccccc3c2)NC1=O [IFX-019, c[Arg-Arg-NaI-NaI-Arg-Arg-NaI]] (cyclo(R[2Nal]RR[2Nal][2Nal]R)) | 12.5 | 12.5 (≈ 10.3 µM) | 3.1 | 50 (≈ 41.1 µM) | 1.5 | 6.2 | 25 (≈ 20.6 µM) | 1.5 | 50 (≈ 41.1 µM) | 50 (≈ 41.1 µM) | 1.5 | 1.5 | 6.2 (≈ 5.1 µM) | 6.2 (≈ 5.1 µM) | 6.2 (≈ 5.1 µM) | 25 (≈ 20.6 µM) | 12.5 (≈ 10.3 µM) | 25 | 325 | –
N=C(N)NCCC[C@@H]1NC(=O)[C@H](CCCNC(=N)N)NC(=O)[C@H](CCCNC(=N)N)NC(=O)[C@H](C(c2ccccc2)c2ccccc2)NC(=O)[C@H](C(c2ccccc2)c2ccccc2)NC(=O)[C@H](C(c2ccccc2)c2ccccc2)NC(=O)[C@H](CCCNC(=N)N)NC1=O [IFX-008, c[Arg-Arg-Arg-Arg-Dip-Dip-Dip]] (cyclo(RRRR[Dip][Dip][Dip])) | 12.5 | 12.5 (≈ 9.66 µM) | 6.2 | 12.5 (≈ 9.66 µM) | 3.1 | 12.5 | 25 (≈ 19.3 µM) | 6.2 | 50 (≈ 38.6 µM) | 12.5 (≈ 9.66 µM) | 1.5 | 1.5 | 6.2 (≈ 4.79 µM) | 1.5 (≈ 1.16 µM) | 1.5 (≈ 1.16 µM) | 12.5 (≈ 9.66 µM) | 12.5 (≈ 9.66 µM) | 25 | 190 | –
N=C(N)NCCC[C@@H]1NC(=O)[C@H](CCCNC(=N)N)NC(=O)[C@H](Cc2ccc3ccccc3c2)NC(=O)[C@H](Cc2ccc3ccccc3c2)NC(=O)[C@H](CCCNC(=N)N)NC(=O)[C@H](CCCNC(=N)N)NC(=O)[C@H](Cc2ccc3ccccc3c2)NC1=O [IFX-018, c[Arg-NaI-Arg-Arg-NaI-NaI-Arg]] (cyclo(R[2Nal]RR[2Nal][2Nal]R)) | 12.5 | 25 (≈ 20.6 µM) | 6.2 | >100 | 1.5 | 12.5 | 50 (≈ 41.1 µM) | 3.1 | 50 (≈ 41.1 µM) | 25 (≈ 20.6 µM) | 1.5 | 1.5 | 12.5 (≈ 10.3 µM) | 6.2 (≈ 5.1 µM) | 6.2 (≈ 5.1 µM) | 25 (≈ 20.6 µM) | 6.2 (≈ 5.1 µM) | 25 | 300 | –
